PMC4904373, “Azole Antifungal Sensitivity of Sterol 14α-Demethylase (CYP51) and CYP5218 from Malassezia globosa” (Scientific Reports, 2016)
Where two headings read alike, the source gives them in different places.

What was measured:
M. globosa CYP5218 [1] = molecular target: T1, M. globosa CYP5218 (Malassezia globosa, UniProt A8QCD3, A3L/A5L/F6A/I7V/S4L/S8F); test: biochemical; type: binding; settings: for binding spectra with CYP5218: result in words; for CYP5218 Kd (μM) Eadie-Hofstee / CYP5218 Kd (μM) Michaelis-Menten / Kd: 4 μM CYP5218, type I spectra, mean of three replicates with SD
Description: Reduced carbon monoxide difference spectroscopy[46][47] and absolute spectra between 700 and 300 nm were used to determine cytochrome P450 concentrations. Substrate and azole binding studies were performed[31][48] using 2.5 mM stock sterol solutions in 40% (wt/vol) (2-hydroxypropyl)-β-cyclodextrin (HPCD), 4 mg ml^−1 solutions of fatty acids in dimethylformamide (DMF), and stock 0.05, 0.1 and 0.2 mg ml^−1 solutions of azole antifungal agents in dimethylsulfoxide (DMSO). Sterols were titrated against 5 μM CYP51, fatty acids were titrated against 4 μM CYP5218 and azole antifungal agents were titrated against 2 μM CYP51 and CYP5218. The absorbance difference spectrum between 500 and 350 nm was determined after each incremental addition of ligand with saturation curves constructed from ΔApeak-trough against ligand concentration. […] The dissociation constants of the enzyme-azole complex were determined by non-linear regression (Levenberg-Marquardt algorithm) using a rearrangement of the Morrison equation for tight ligand binding. ProFit 6.1.12 (QuantumSoft, Zurich, Switzerland) was used for curve-fitting data. All ligand-binding studies were performed at 22 ± 2 °C and in triplicate. All spectral determinations were made using a Hitachi U-3310 UV/VIS spectrophotometer (San Jose, California).

M. globosa CYP5218 [2] = molecular target: T1, M. globosa CYP5218; settings: 100 μM fatty acid, 1 hour to overnight (~16 h), three different cytochrome P450 reductase redox partners
Description: The CYP5218 fatty acid reconstitution assay system used was based on that previously described by Guengerich[54] and contained 200 nM of CYP5218, 500 nM of cytochrome P450 reductase (A. fumigatus CPR1[52]) or H. sapiens CPR[55] or C. albicans CPR[56], 50 μM DLPC, 100 μM fatty acid (lauric acid, myristic acid, palmitic acid, palmitoleic acid, oleic acid and linoleic acid), 4 mM glucose-6-phosphate, 3 U/ml yeast glucose-6-phosphate dehydrogenase in a final volume of 500 μl with 0.1 M potassium phosphate (pH 7.4). Assay mixtures were incubated at 37 °C for 5 min prior to initiation with 4 mM β-NADPHNa4 and then incubated for a further 60 min or overnight (~16 h) at 37 °C. Fatty acid metabolites were recovered by extraction with dichloromethane and dried in a vacuum centrifuge. Samples were derivatized with 200 μl anhydrous pyridine and 250 μl BSTFA:TMCS (99:1) (30 min at 80 °C) and extracted with 500 μl of hexane, prior to analysis by GC/MS (Thermo GC Trace 1300 and ISQ MS). GC analysis was performed with a 5% phenyl methylpolysiloxane column (DB5) (Agilent Technologies). The oven programme was as follows: initial: 70 °C, with 3 min hold; ramp: 10 °C min^−1 to 180 °C (held for 2 min), 10 °C min^−1 to 250 °C (held for 2 min) and 10 °C min^−1 to 280 °C (held for 2 min). Data were analyzed using Thermo Xcalibur 2.2 software.

Candida maltosa CYP52A4 = tested on: Candida maltosa CYP52A4; set-up: method as in PMID 8645001; settings: cited from earlier work
[3] = CYP5218 Kd (μM) Michaelis-Menten

Which “binding spectra with CYP5218” value (M. globosa CYP5218 [1]) does the source give for C=CCCCCCCCCCCCCCC [1-hexadecene] here?
The value was “No binding spectra”.

What does the source list for CCCCCCCCCCCCCCCCCCCC(=O)O [Arachidic acid, arachidic acid]?
CYP5218 Kd (μM) Eadie-Hofstee (M. globosa CYP5218 [1]): no binding; CYP5218 Kd (μM) Michaelis-Menten (M. globosa CYP5218 [1]): no binding; binding spectra with CYP5218 (M. globosa CYP5218 [1]): No binding spectra

Which Kd (M. globosa CYP5218 [1]; CYP5218 Kd (μM) Eadie-Hofstee) does the source give for CCCCC/C=C\C/C=C\C/C=C\C/C=C\CCCC(=O)O [Arachidonic acid, arachidonic acid] here?
The Kd was 256 ± 36 µM.

What about the Kd (M. globosa CYP5218 [1]; [3]) of the same molecule?
Its Kd is 264 ± 34 µM.

Which “CYP5218 Kd (μM) Eadie-Hofstee” value (M. globosa CYP5218 [1]) does the source give for CCCCCCCCCC(=O)O [Capric acid, capric acid] here?
The value was “no binding”.

And the “CYP5218 Kd (μM) Michaelis-Menten” value (M. globosa CYP5218 [1])?
Its value is “no binding”.

And the “binding spectra with CYP5218” value (M. globosa CYP5218 [1])?
The value was “No binding spectra”.

With CCCCCCCCCCCC(=O)O [Lauric acid, lauric acid] as the molecule, how does the “product formation in CYP5218 reconstitution assay” value (M. globosa CYP5218 [2]) read?
The value was “no observed product formation”.

What about the Kd (M. globosa CYP5218 [1]; CYP5218 Kd (μM) Eadie-Hofstee) of the same molecule?
The Kd was 136 ± 3 µM.

What about the Kd (M. globosa CYP5218 [1]; [3]) of the same molecule?
The Kd was 136 ± 4 µM.

And the Kd (Candida maltosa CYP52A4)?
Its Kd is roughly 110 µM.

With CC/C=C\CCCCCCCC(=O)O [Lauroleic acid, lauroleic acid] as the molecule, how does the “CYP5218 Kd (μM) Michaelis-Menten” value (M. globosa CYP5218 [1]) read?
Its value is “poor fit”.

And the Kd (M. globosa CYP5218 [1]; read-out: CYP5218 Kd (μM) Eadie-Hofstee)?
The Kd was 148 ± 20 µM.

Which results are given for CCCCCCCCCCCCCC(=O)O [Myristic acid, myristic acid]?
product formation in CYP5218 reconstitution assay (M. globosa CYP5218 [2]): no observed product formation; Kd (M. globosa CYP5218 [1]; CYP5218 Kd (μM) Eadie-Hofstee): 245 ± 29 µM; Kd (M. globosa CYP5218 [1]; [3]): 195 ± 41 µM; Kd (Candida maltosa CYP52A4): ~120 µM

With CCCC/C=C\CCCCCCCC(=O)O [Myristoleic acid, myristoleic acid] as the molecule, how does the Kd (M. globosa CYP5218 [1]; CYP5218 Kd (μM) Eadie-Hofstee) read?
The Kd was 151 ± 8 µM.

What about the Kd (M. globosa CYP5218 [1]; [3]) of the same molecule?
Its Kd is 158 ± 20 µM.

Which results are given for CCCCCCCC/C=C\CCCCCCCC(=O)O [Oleic acid, oleic acid]?
product formation in CYP5218 reconstitution assay (M. globosa CYP5218 [2]): no observed product formation; Kd (M. globosa CYP5218 [1]; CYP5218 Kd (μM) Eadie-Hofstee): 90 ± 16 µM; Kd (M. globosa CYP5218 [1]; [3]): 93 ± 11 µM

With CCCCCCCCCCCCCCCC(=O)O [Palmitic acid, palmitic acid] as the molecule, how does the “product formation in CYP5218 reconstitution assay” value (M. globosa CYP5218 [2]) read?
Its value is “no observed product formation”.

What about the Kd (M. globosa CYP5218 [1]; CYP5218 Kd (μM) Eadie-Hofstee) of the same molecule?
Its Kd is 253 ± 77 µM.

What about the Kd (M. globosa CYP5218 [1]; [3]) of the same molecule?
Its Kd is 1020 ± 755 µM.

Which results are given for CCCCCC/C=C\CCCCCCCC(=O)O [Palmitoleic acid, palmitoleic acid]?
product formation in CYP5218 reconstitution assay (M. globosa CYP5218 [2]): no observed product formation; Kd (M. globosa CYP5218 [1]; CYP5218 Kd (μM) Eadie-Hofstee): 114 ± 5 µM; Kd (M. globosa CYP5218 [1]; [3]): 113 ± 7 µM
